{"source": "the NIST ThermoML archive (doi:10.1016/j.jct.2018.07.013)", "key": {"[1]": {"experiment": "xn = mol fraction of the nth substance listed", "conditions": "298.15 K, 100 kPa, Liquid; for speed of sound: Frequency=3 MHz, Single path-length method; for mass density: Vibrating tube method"}, "[2]": {"experiment": "excess molar enthalpy (molar enthalpy of mixing); xn = mol fraction of the nth substance listed", "conditions": "298.15 K, 100 kPa, Liquid, Power-compensation calorimetry"}}, "note": "Numbers after ± are expanded uncertainties."}
{"smiles": "CCCO", "note": "[propan-1-ol] + CCOC(=O)C(C)O", "values": [{"measurement": "speed of sound", "setting": "[1]; x2 = 0", "value": "1206 ± 0.55", "unit": "m/s"}, {"measurement": "mass density", "setting": "[1]; x2 = 0", "value": "799.66 ± 0.15", "unit": "kg/m3"}]}
{"smiles": "CCCCO", "note": "[butan-1-ol] + CCOC(=O)C(C)O", "values": [{"measurement": "speed of sound", "setting": "[1]; x2 = 0", "value": "1240.4 ± 0.52", "unit": "m/s"}, {"measurement": "mass density", "setting": "[1]; x2 = 0", "value": "805.95 ± 0.14", "unit": "kg/m3"}]}
{"smiles": "CO", "note": "[methanol] + CCOC(=O)C(C)O", "values": [{"measurement": "speed of sound", "setting": "[1]; x2 = 0", "value": "1104 ± 0.55", "unit": "m/s"}, {"measurement": "mass density", "setting": "[1]; x2 = 0", "value": "786.53 ± 0.15", "unit": "kg/m3"}]}
{"smiles": "CCCO", "note": "[propan-1-ol] + COC(=O)C(C)O", "values": [{"measurement": "speed of sound", "setting": "[1]; x2 = 0", "value": "1206 ± 0.55", "unit": "m/s"}, {"measurement": "mass density", "setting": "[1]; x2 = 0", "value": "799.66 ± 0.15", "unit": "kg/m3"}]}
{"smiles": "COC(=O)C(C)O", "note": "(stereo not drawn) [methyl 2-hydroxypropanoate] + CCCO", "values": [{"measurement": "speed of sound", "setting": "[1]; x1 = 0.045", "value": "1211.5 ± 0.55", "unit": "m/s"}, {"measurement": "speed of sound", "setting": "[1]; x1 = 0.1025", "value": "1218.9 ± 0.55", "unit": "m/s"}, {"measurement": "speed of sound", "setting": "[1]; x1 = 0.2047", "value": "1232.5 ± 0.56", "unit": "m/s"}, {"measurement": "speed of sound", "setting": "[1]; x1 = 0.3", "value": "1245.4 ± 0.56", "unit": "m/s"}, {"measurement": "speed of sound", "setting": "[1]; x1 = 0.4004", "value": "1259.8 ± 0.56", "unit": "m/s"}, {"measurement": "speed of sound", "setting": "[1]; x1 = 0.5012", "value": "1274.1 ± 0.57", "unit": "m/s"}, {"measurement": "speed of sound", "setting": "[1]; x1 = 0.5911", "value": "1286.9 ± 0.57", "unit": "m/s"}, {"measurement": "speed of sound", "setting": "[1]; x1 = 0.6935", "value": "1300.8 ± 0.58", "unit": "m/s"}, {"measurement": "speed of sound", "setting": "[1]; x1 = 0.7978", "value": "1315.1 ± 0.58", "unit": "m/s"}, {"measurement": "speed of sound", "setting": "[1]; x1 = 0.9", "value": "1327.6 ± 0.59", "unit": "m/s"}, {"measurement": "speed of sound", "setting": "[1]; x1 = 0.945", "value": "1333.1 ± 0.59", "unit": "m/s"}, {"measurement": "speed of sound", "setting": "[1]; x1 = 1", "value": "1339.3 ± 0.59", "unit": "m/s"}, {"measurement": "mass density", "setting": "[1]; x1 = 0.045", "value": "815.93 ± 0.16", "unit": "kg/m3"}, {"measurement": "mass density", "setting": "[1]; x1 = 0.1025", "value": "836.2 ± 0.15", "unit": "kg/m3"}, {"measurement": "mass density", "setting": "[1]; x1 = 0.2047", "value": "870.81 ± 0.15", "unit": "kg/m3"}, {"measurement": "mass density", "setting": "[1]; x1 = 0.3", "value": "901.52 ± 0.14", "unit": "kg/m3"}, {"measurement": "mass density", "setting": "[1]; x1 = 0.4004", "value": "932.31 ± 0.13", "unit": "kg/m3"}, {"measurement": "mass density", "setting": "[1]; x1 = 0.5012", "value": "961.71 ± 0.13", "unit": "kg/m3"}, {"measurement": "mass density", "setting": "[1]; x1 = 0.5911", "value": "986.71 ± 0.12", "unit": "kg/m3"}, {"measurement": "mass density", "setting": "[1]; x1 = 0.6935", "value": "1013.88 ± 0.12", "unit": "kg/m3"}, {"measurement": "mass density", "setting": "[1]; x1 = 0.7978", "value": "1040.2 ± 0.13", "unit": "kg/m3"}, {"measurement": "mass density", "setting": "[1]; x1 = 0.9", "value": "1064.67 ± 0.13", "unit": "kg/m3"}, {"measurement": "mass density", "setting": "[1]; x1 = 0.945", "value": "1075.04 ± 0.13", "unit": "kg/m3"}, {"measurement": "mass density", "setting": "[1]; x1 = 1", "value": "1087.35 ± 0.13", "unit": "kg/m3"}, {"measurement": "excess molar enthalpy", "setting": "[2]; x1 = 0.05", "value": "0.0457 ± 0.00143", "unit": "kcal/mol"}, {"measurement": "excess molar enthalpy", "setting": "[2]; x1 = 0.104", "value": "0.0832 ± 0.00167", "unit": "kcal/mol"}, {"measurement": "excess molar enthalpy", "setting": "[2]; x1 = 0.207", "value": "0.134 ± 0.00191", "unit": "kcal/mol"}, {"measurement": "excess molar enthalpy", "setting": "[2]; x1 = 0.309", "value": "0.162 ± 0.00215", "unit": "kcal/mol"}, {"measurement": "excess molar enthalpy", "setting": "[2]; x1 = 0.411", "value": "0.172 ± 0.00215", "unit": "kcal/mol"}, {"measurement": "excess molar enthalpy", "setting": "[2]; x1 = 0.501", "value": "0.17 ± 0.00215", "unit": "kcal/mol"}, {"measurement": "excess molar enthalpy", "setting": "[2]; x1 = 0.607", "value": "0.157 ± 0.00215", "unit": "kcal/mol"}, {"measurement": "excess molar enthalpy", "setting": "[2]; x1 = 0.707", "value": "0.133 ± 0.00191", "unit": "kcal/mol"}, {"measurement": "excess molar enthalpy", "setting": "[2]; x1 = 0.802", "value": "0.101 ± 0.00167", "unit": "kcal/mol"}, {"measurement": "excess molar enthalpy", "setting": "[2]; x1 = 0.902", "value": "0.0531 ± 0.0012", "unit": "kcal/mol"}, {"measurement": "excess molar enthalpy", "setting": "[2]; x1 = 0.95", "value": "0.0258 ± 0.0012", "unit": "kcal/mol"}]}
{"smiles": "COC(=O)C(C)O", "note": "(stereo not drawn) [methyl 2-hydroxypropanoate] + CCCCO", "values": [{"measurement": "speed of sound", "setting": "[1]; x1 = 0.0589", "value": "1242.8 ± 0.52", "unit": "m/s"}, {"measurement": "speed of sound", "setting": "[1]; x1 = 0.1088", "value": "1245.1 ± 0.52", "unit": "m/s"}, {"measurement": "speed of sound", "setting": "[1]; x1 = 0.1905", "value": "1249.8 ± 0.53", "unit": "m/s"}, {"measurement": "speed of sound", "setting": "[1]; x1 = 0.2973", "value": "1257.2 ± 0.54", "unit": "m/s"}, {"measurement": "speed of sound", "setting": "[1]; x1 = 0.3887", "value": "1265 ± 0.54", "unit": "m/s"}, {"measurement": "speed of sound", "setting": "[1]; x1 = 0.4999", "value": "1275.8 ± 0.55", "unit": "m/s"}, {"measurement": "speed of sound", "setting": "[1]; x1 = 0.5977", "value": "1286.4 ± 0.56", "unit": "m/s"}, {"measurement": "speed of sound", "setting": "[1]; x1 = 0.6976", "value": "1298.3 ± 0.56", "unit": "m/s"}, {"measurement": "speed of sound", "setting": "[1]; x1 = 0.7926", "value": "1310.6 ± 0.57", "unit": "m/s"}, {"measurement": "speed of sound", "setting": "[1]; x1 = 0.9107", "value": "1326.6 ± 0.58", "unit": "m/s"}, {"measurement": "speed of sound", "setting": "[1]; x1 = 0.9577", "value": "1333.2 ± 0.59", "unit": "m/s"}, {"measurement": "speed of sound", "setting": "[1]; x1 = 1", "value": "1339.3 ± 0.59", "unit": "m/s"}, {"measurement": "mass density", "setting": "[1]; x1 = 0.0589", "value": "822.83 ± 0.15", "unit": "kg/m3"}, {"measurement": "mass density", "setting": "[1]; x1 = 0.1088", "value": "837.09 ± 0.15", "unit": "kg/m3"}, {"measurement": "mass density", "setting": "[1]; x1 = 0.1905", "value": "860.37 ± 0.14", "unit": "kg/m3"}, {"measurement": "mass density", "setting": "[1]; x1 = 0.2973", "value": "890.71 ± 0.14", "unit": "kg/m3"}, {"measurement": "mass density", "setting": "[1]; x1 = 0.3887", "value": "916.62 ± 0.13", "unit": "kg/m3"}, {"measurement": "mass density", "setting": "[1]; x1 = 0.4999", "value": "948.04 ± 0.13", "unit": "kg/m3"}, {"measurement": "mass density", "setting": "[1]; x1 = 0.5977", "value": "975.58 ± 0.13", "unit": "kg/m3"}, {"measurement": "mass density", "setting": "[1]; x1 = 0.6976", "value": "1003.57 ± 0.12", "unit": "kg/m3"}, {"measurement": "mass density", "setting": "[1]; x1 = 0.7926", "value": "1030.02 ± 0.13", "unit": "kg/m3"}, {"measurement": "mass density", "setting": "[1]; x1 = 0.9107", "value": "1062.72 ± 0.13", "unit": "kg/m3"}, {"measurement": "mass density", "setting": "[1]; x1 = 0.9577", "value": "1075.69 ± 0.14", "unit": "kg/m3"}, {"measurement": "mass density", "setting": "[1]; x1 = 1", "value": "1087.35 ± 0.13", "unit": "kg/m3"}, {"measurement": "excess molar enthalpy", "setting": "[2]; x1 = 0.054", "value": "0.0531 ± 0.00167", "unit": "kcal/mol"}, {"measurement": "excess molar enthalpy", "setting": "[2]; x1 = 0.132", "value": "0.109 ± 0.00191", "unit": "kcal/mol"}, {"measurement": "excess molar enthalpy", "setting": "[2]; x1 = 0.174", "value": "0.138 ± 0.00215", "unit": "kcal/mol"}, {"measurement": "excess molar enthalpy", "setting": "[2]; x1 = 0.287", "value": "0.186 ± 0.00239", "unit": "kcal/mol"}, {"measurement": "excess molar enthalpy", "setting": "[2]; x1 = 0.384", "value": "0.204 ± 0.00263", "unit": "kcal/mol"}, {"measurement": "excess molar enthalpy", "setting": "[2]; x1 = 0.487", "value": "0.207 ± 0.00263", "unit": "kcal/mol"}, {"measurement": "excess molar enthalpy", "setting": "[2]; x1 = 0.552", "value": "0.2 ± 0.00263", "unit": "kcal/mol"}, {"measurement": "excess molar enthalpy", "setting": "[2]; x1 = 0.705", "value": "0.16 ± 0.00215", "unit": "kcal/mol"}, {"measurement": "excess molar enthalpy", "setting": "[2]; x1 = 0.75", "value": "0.136 ± 0.00215", "unit": "kcal/mol"}, {"measurement": "excess molar enthalpy", "setting": "[2]; x1 = 0.864", "value": "0.0767 ± 0.00143", "unit": "kcal/mol"}, {"measurement": "excess molar enthalpy", "setting": "[2]; x1 = 0.934", "value": "0.039 ± 0.0012", "unit": "kcal/mol"}]}
